# Data published in the supplement of paper PMC10307832.
# Key:
# Assay in all cases: relative viability (nuclei count vs DMSO), 5 days (fraction); higher = more cells survive
# [1] = compound: C1=CC=C2C(=C1)N=C(S2)C(C#N)C3=NC(=NC=C3)NCCC4=CN=CC=C4 + O=C(c1cc(Cc2n[nH]c(=O)c3ccccc23)ccc1F)N1CCN(C(=O)C2CC2)CC1 [Olaparib] (partner 8 µM)
# In short: (§1)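 Nuclei were stained with Hoechst during a one-step fixation (final 0.05% Triton X-100, 1% formaldehyde, 1 ug/ml Hoechst) carried out 5 days after dosing, then counted on 4× images. The cells, lung cancer lines in 1536-well plates, had been dosed by pin tool the day after seeding with one drug alone or a fixed anchor-drug dose plus five library-drug doses (not always all listed) in √10 steps. Relative viability is the nuclei count in treated wells divided by that in vehicle wells, and each value is the median of duplicate plates.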
# NVP-TAE684 + Foretinib = compound: COc1cc(N2CCC(N3CCN(C)CC3)CC2)ccc1Nc1ncc(Cl)c(Nc2ccccc2S(=O)(=O)C(C)C)n1 [NVP-TAE684] + COc1cc2c(Oc3ccc(NC(=O)C4(C(=O)Nc5ccc(F)cc5)CC4)cc3F)ccnc2cc1OCCCN1CCOCC1 [Foretinib] (partner 0.25 µM)
# In short: as §1
# NVP-TAE684 + Pemetrexed = compound: COc1cc(N2CCC(N3CCN(C)CC3)CC2)ccc1Nc1ncc(Cl)c(Nc2ccccc2S(=O)(=O)C(C)C)n1 [NVP-TAE684] + Nc1nc2[nH]cc(CCc3ccc(C(=O)N[C@@H](CCC(=O)O)C(=O)O)cc3)c2c(=O)[nH]1 [Pemetrexed] (partner 0.2 µM)
# In short: as §1
# CUDC-101 + Pemetrexed = compound: C#Cc1cccc(Nc2ncnc3cc(OC)c(OCCCCCCC(=O)NO)cc23)c1 [CUDC-101] + Nc1nc2[nH]cc(CCc3ccc(C(=O)N[C@@H](CCC(=O)O)C(=O)O)cc3)c2c(=O)[nH]1 [Pemetrexed] (partner 0.2 µM)
# In short: as §1
# NVP-TAE684 + Luminespib = compound: COc1cc(N2CCC(N3CCN(C)CC3)CC2)ccc1Nc1ncc(Cl)c(Nc2ccccc2S(=O)(=O)C(C)C)n1 [NVP-TAE684] + CCNC(=O)c1noc(-c2cc(C(C)C)c(O)cc2O)c1-c1ccc(CN2CCOCC2)cc1 [Luminespib] (partner 0.01 µM)
# In short: as §1
Cell Line,relative viability ([1]; first compound 0.005 µM),relative viability ([1]; first compound 0.01581 µM),relative viability ([1]; first compound 0.05 µM),relative viability ([1]; first compound 0.1581 µM),relative viability ([1]; first compound 0.5 µM),relative viability (NVP-TAE684 + Foretinib; first compound 0.2 µM),relative viability (NVP-TAE684 + Foretinib; first compound 0.6325 µM),relative viability (NVP-TAE684 + Foretinib; first compound 2 µM),relative viability (NVP-TAE684 + Pemetrexed; first compound 0.2 µM),relative viability (NVP-TAE684 + Pemetrexed; first compound 0.6325 µM),relative viability (NVP-TAE684 + Pemetrexed; first compound 2 µM),relative viability (CUDC-101 + Pemetrexed; first compound 0.01 µM),relative viability (CUDC-101 + Pemetrexed; first compound 0.03162 µM),relative viability (CUDC-101 + Pemetrexed; first compound 0.1 µM),relative viability (CUDC-101 + Pemetrexed; first compound 0.3162 µM),relative viability (CUDC-101 + Pemetrexed; first compound 1 µM),relative viability (NVP-TAE684 + Luminespib; first compound 0.2 µM),relative viability (NVP-TAE684 + Luminespib; first compound 2 µM),relative viability (NVP-TAE684 + Luminespib; first compound 0.6325 µM)
PC-14,0.28,0.267,0.211,0.244,0.247,0.689,1.12,1.03,0.145,0.134,0.124,0.154,0.129,0.156,0.138,0.152,0.157,0.144,–
NCI-H661,0.543,0.8,0.723,0.801,0.613,1.19,1.05,0.779,0.959,0.924,0.894,0.956,0.903,0.953,0.968,0.631,1,–,0.883
Calu-6,0.602,0.619,0.52,0.644,0.505,–,0.878,0.671,–,–,–,–,–,–,–,–,–,–,–
NCI-H1703,0.357,0.353,–,0.377,0.66,0.388,0.325,0.331,–,–,–,–,–,–,–,–,–,–,–
NCI-H1299,0.966,1.05,1.01,1.05,0.894,1.16,1.14,1.08,–,–,–,–,–,–,–,–,–,–,–
HCC-78,0.852,0.935,0.816,0.936,0.756,0.539,0.539,0.382,0.886,0.912,0.93,0.876,0.942,0.921,0.912,0.862,–,–,–
NCI-H727,0.734,0.622,0.806,0.746,0.679,0.855,0.818,0.38,–,–,–,–,–,–,–,–,0.24,0.216,0.382
NCI-H522,0.66,0.638,0.634,0.533,0.751,–,–,–,1.13,1.07,0.799,0.87,0.802,1.05,0.963,0.765,0.925,1.02,1.28
IA-LM,–,0.883,0.804,0.836,0.763,1.07,1.07,1.11,–,–,–,–,–,–,–,–,–,–,–
HCC-366,0.189,0.449,0.349,0.372,0.354,1.07,0.935,0.685,0.197,0.178,0.227,0.163,0.157,0.137,0.177,0.201,–,–,–
NCI-H1792,–,0.709,0.427,0.38,0.215,–,–,–,0.773,0.799,0.799,0.856,0.787,0.915,0.721,0.581,0.396,0.359,0.411
ABC-1,0.731,–,0.803,0.825,0.936,1.07,0.742,0.349,–,–,–,–,–,–,–,–,0.405,0.381,0.264
